Reference: ChEMBL document CHEMBL1201862, “PubChem BioAssay data set” (2004)
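Five compound concentrations were applied to cells in 96-well plates for 48 hours; endpoints were derived by simple linear interpolation of the resulting dose-response curve. GI50 is the concentration that inhibits growth by half.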 Active and inactive are the calls of the source. Rule as the data show it: active = GI50 up to about 1.1 µM and inactive = higher.

Assays:
Assay in all cases: NCI-60 cell line screen, 48 h
BT-549 = tested on: BT-549
EKVX = tested on: EKVX
HOP-62 = tested on: HOP-62
LOX IMVI = tested on: LOX IMVI
MDA-MB-231 = tested on: MDA-MB-231
MDA-N = tested on: MDA-N
MOLT-4 = tested on: MOLT-4
Malme-3M = tested on: Malme-3M
NCI/ADR-RES = tested on: NCI/ADR-RES
OVCAR-8 = tested on: OVCAR-8
RXF 393 = tested on: RXF 393
SK-MEL-2 = tested on: SK-MEL-2
SK-MEL-5 = tested on: SK-MEL-5
SN12C = tested on: SN12C
SNB-75 = tested on: SNB-75
SR = tested on: SR
T47D = tested on: T47D
U-251 = tested on: U-251
CAKI-1 = tested on: CAKI-1
CCRF-CEM = tested on: CCRF-CEM

| SMILES | GI50 (BT-549) | GI50 (EKVX) | GI50 (HOP-62) | GI50 (LOX IMVI) | GI50 (MDA-MB-231) | GI50 (MDA-N) | GI50 (MOLT-4) | GI50 (Malme-3M) | GI50 (NCI/ADR-RES) | GI50 (OVCAR-8) | GI50 (RXF 393) | GI50 (SK-MEL-2) | GI50 (SK-MEL-5) | GI50 (SN12C) | GI50 (SNB-75) | GI50 (SR) | GI50 (T47D) | GI50 (U-251) | GI50 (CAKI-1) | GI50 (CCRF-CEM) |
| --- | --- | --- | --- | --- | --- | --- | --- | --- | --- | --- | --- | --- | --- | --- | --- | --- | --- | --- | --- | --- |
| CN(C)c1ccc(/C=C2\C[C@H]3[C@@H]4CC=C5C[C@@H](O)CC[C@]5(C)[C@H]4CC[C@]3(C)[C@H]2O)cc1 | 21 µM (inactive) | 4.81 µM (inactive) | 29.4 µM (inactive) | 8.51 µM (inactive) | 16.2 µM (inactive) | 20.2 µM (inactive) | 32 µM (inactive) | 19.9 µM (inactive) | 18.4 µM (inactive) | 3.84 µM (inactive) | 25.5 µM (inactive) | 20.9 µM (inactive) | 17.6 µM (inactive) | 12.8 µM (inactive) | 29.2 µM (inactive) | 21 µM (inactive) | 23.3 µM (inactive) | 8.2 µM (inactive) |  |  |
| CCN1CN(c2ccccc2)C2(CCN(CCCSc3ccc(F)cc3)CC2)C1=O | 8.61 µM (inactive) | 4.89 µM (inactive) | 4.31 µM (inactive) | 14.3 µM (inactive) | 12.7 µM (inactive) | 11.7 µM (inactive) | 4.88 µM (inactive) | 19.9 µM (inactive) | 12.2 µM (inactive) | 14.8 µM (inactive) | 12.9 µM (inactive) |  | 2.82 µM (inactive) | 8.47 µM (inactive) | 16.4 µM (inactive) | 11.8 µM (inactive) | 3.26 µM (inactive) | > 10 µM (inactive) | 12 µM (inactive) | 4.24 µM (inactive) |
| CCOC(=O)CCC(NC(=O)c1ccc(Oc2nc3c(N)cc(C(F)(F)F)cc3nc2-c2ccccc2)cc1)C(=O)OCC (centres undefined) | > 50.6 µM (inactive) | 47.1 µM (inactive) | 6.98 µM (inactive) | > 27.1 µM (inactive) | 19 µM (inactive) | 63.1 µM (inactive) | > 100 µM (inactive) | 12.4 µM (inactive) | 1.34 µM (inactive) | 1.09 µM (active) | 0.402 µM (active) |  | 17.6 µM (inactive) | 45.9 µM (inactive) | 5.05 µM (inactive) | 9.95 µM (inactive) | 39.6 µM (inactive) | 32.6 µM (inactive) | 2.82 µM (inactive) | > 100 µM (inactive) |
| N=C(N)N/N=C/c1c(-c2ccc(N)cc2)nc2sccn12 | 35.5 µM (inactive) | 24.7 µM (inactive) | 26.5 µM (inactive) | 32.9 µM (inactive) | 21 µM (inactive) | 24.5 µM (inactive) | 25.4 µM (inactive) | 61 µM (inactive) | > 100 µM (inactive) | 34.5 µM (inactive) | 18.2 µM (inactive) | 30.5 µM (inactive) | > 100 µM (inactive) | 21.3 µM (inactive) |  | 33.7 µM (inactive) | 21.1 µM (inactive) | 25.4 µM (inactive) | 33.7 µM (inactive) | 26.8 µM (inactive) |
| O=C1C2=C(SCCS2)C(=O)c2c(Sc3ccc(Cl)cc3)c(Sc3ccc(Cl)cc3)c(Sc3ccc(Cl)cc3)c(Sc3ccc(Cl)cc3)c21 | > 100 µM (inactive) | > 100 µM (inactive) | 42.7 µM (inactive) |  | 32 µM (inactive) | > 100 µM (inactive) | 17.1 µM (inactive) | 20.2 µM (inactive) | > 100 µM (inactive) | > 100 µM (inactive) | 27 µM (inactive) | 41.9 µM (inactive) | > 100 µM (inactive) | > 100 µM (inactive) | 19.1 µM (inactive) | 21.8 µM (inactive) | > 100 µM (inactive) | 57.8 µM (inactive) | > 100 µM (inactive) | 11.6 µM (inactive) |
